# Experimental data from publication PMC6540285, “Evaluation of Protein Kinase Inhibitors with PLK4 Cross-Over Potential in a Pre-Clinical Model of Cancer” (International Journal of Molecular Sciences, 2019).
# pIC50: −log10 of the molar value.
# Tests used:
# [1] = molecular target: PRKG1 (Homo sapiens, UniProt Q13976); test: SelectScreen kinase profiling, ZLYTE; assay type: biochemical; details: PRKG1, 10 µM
# [2] = molecular target: CDK5/p25 (Homo sapiens, UniProt Q00535); test: SelectScreen kinase profiling, ZLYTE; assay type: biochemical; details: CDK5/p25, 10 µM
# [3] = molecular target: P450 2C19 (Homo sapiens, UniProt P33261)
# [4] = molecular target: ITK (Homo sapiens, UniProt Q08881); test: SelectScreen kinase profiling, ZLYTE; assay type: biochemical
# [5] = molecular target: RPS6KA2 (RSK3) (Homo sapiens, UniProt Q15349); test: SelectScreen kinase profiling, ZLYTE; assay type: biochemical
# [6] = molecular target: TGFBR1 (ALK5) (Homo sapiens, UniProt P36897); test: SelectScreen kinase profiling, LanthaScreen binding
# Excerpt: Kinase Technology % Inhibition Avg Kinase Technology % Inhibition Avg
# [7] = molecular target: MELK (Homo sapiens, UniProt Q14680); test: SelectScreen kinase profiling, ZLYTE; assay type: biochemical
# [8] = molecular target: PRKACG (PRKAC gamma) (Homo sapiens, UniProt P22612); test: SelectScreen kinase profiling, LanthaScreen binding
# PRKACG (PRKAC gamma), sequence (P22612 whole entry): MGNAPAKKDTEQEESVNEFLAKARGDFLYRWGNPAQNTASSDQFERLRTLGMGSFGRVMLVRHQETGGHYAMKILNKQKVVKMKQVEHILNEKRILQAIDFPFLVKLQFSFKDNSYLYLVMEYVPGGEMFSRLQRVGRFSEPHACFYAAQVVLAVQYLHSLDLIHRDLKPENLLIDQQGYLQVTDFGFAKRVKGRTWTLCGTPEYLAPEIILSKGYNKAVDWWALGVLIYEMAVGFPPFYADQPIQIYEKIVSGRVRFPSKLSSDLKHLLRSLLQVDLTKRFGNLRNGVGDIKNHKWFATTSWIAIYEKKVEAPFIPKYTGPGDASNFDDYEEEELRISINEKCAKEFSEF
# [9] = molecular target: CDC42 BPA (MRCKA) (Homo sapiens, UniProt Q5VT25); test: SelectScreen kinase profiling, ZLYTE; assay type: biochemical
# [10] = molecular target: NEK7 (Homo sapiens, UniProt Q8TDX7); test: SelectScreen kinase profiling, ZLYTE; assay type: biochemical; details: NEK7, 10 µM
# [11] = molecular target: PI4KB (PI4K beta) (Homo sapiens, UniProt Q9UBF8); test: SelectScreen kinase profiling, Adapta; assay type: biochemical
# [12] = molecular target: FGFR2 (Homo sapiens, UniProt P21802); test: SelectScreen kinase profiling, ZLYTE; assay type: biochemical; details: FGFR2, 10 µM
# [13] = molecular target: MYLK (MLCK) (Homo sapiens, UniProt Q15746); test: SelectScreen kinase profiling, LanthaScreen binding
# [14] = molecular target: CSNK2A2 (CK2 alpha 2) (Homo sapiens, UniProt P19784); test: SelectScreen kinase profiling, ZLYTE; assay type: biochemical
# [15] = molecular target: RET (Homo sapiens, UniProt P07949); test: SelectScreen kinase profiling, ZLYTE; assay type: biochemical
# [16] = molecular target: PIK3CA E545K/PIK3R1 (p110 alpha E545K/p85 alpha) (Homo sapiens, UniProt P42336, E545K); test: SelectScreen kinase profiling, Adapta; assay type: biochemical; details: PIK3CA E545K/PIK3R1, 10 µM
# [17] = molecular target: LIMK1 (Homo sapiens, UniProt P53667); test: SelectScreen kinase profiling, LanthaScreen binding; details: LIMK1, 10 µM
# [18] = molecular target: PIK3C2G (PI3K-C2 gamma) (Homo sapiens, UniProt O75747); test: SelectScreen kinase profiling, Adapta; assay type: biochemical
# [19] = molecular target: MINK1 (Homo sapiens, UniProt Q8N4C8); test: SelectScreen kinase profiling, ZLYTE; assay type: biochemical; details: MINK1, 10 µM
# [20] = molecular target: EIF2AK2 (PKR) (Homo sapiens, UniProt P19525); test: SelectScreen kinase profiling, LanthaScreen binding
# [21] = molecular target: KIT (Homo sapiens, UniProt P10721); test: SelectScreen kinase profiling, ZLYTE; assay type: biochemical
# [22] = molecular target: RET V804M (Homo sapiens, UniProt P07949, V804M); test: SelectScreen kinase profiling, LanthaScreen binding
# [23] = molecular target: MAPKAPK2 (Homo sapiens, UniProt P49137); test: SelectScreen kinase profiling, ZLYTE; assay type: biochemical; details: MAPKAPK2, 10 µM
# [24] = molecular target: KIT V560G (Homo sapiens, UniProt P10721, V560G); test: SelectScreen kinase profiling, ZLYTE; assay type: biochemical
# KIT V560G, sequence (P10721 26-976 V560G): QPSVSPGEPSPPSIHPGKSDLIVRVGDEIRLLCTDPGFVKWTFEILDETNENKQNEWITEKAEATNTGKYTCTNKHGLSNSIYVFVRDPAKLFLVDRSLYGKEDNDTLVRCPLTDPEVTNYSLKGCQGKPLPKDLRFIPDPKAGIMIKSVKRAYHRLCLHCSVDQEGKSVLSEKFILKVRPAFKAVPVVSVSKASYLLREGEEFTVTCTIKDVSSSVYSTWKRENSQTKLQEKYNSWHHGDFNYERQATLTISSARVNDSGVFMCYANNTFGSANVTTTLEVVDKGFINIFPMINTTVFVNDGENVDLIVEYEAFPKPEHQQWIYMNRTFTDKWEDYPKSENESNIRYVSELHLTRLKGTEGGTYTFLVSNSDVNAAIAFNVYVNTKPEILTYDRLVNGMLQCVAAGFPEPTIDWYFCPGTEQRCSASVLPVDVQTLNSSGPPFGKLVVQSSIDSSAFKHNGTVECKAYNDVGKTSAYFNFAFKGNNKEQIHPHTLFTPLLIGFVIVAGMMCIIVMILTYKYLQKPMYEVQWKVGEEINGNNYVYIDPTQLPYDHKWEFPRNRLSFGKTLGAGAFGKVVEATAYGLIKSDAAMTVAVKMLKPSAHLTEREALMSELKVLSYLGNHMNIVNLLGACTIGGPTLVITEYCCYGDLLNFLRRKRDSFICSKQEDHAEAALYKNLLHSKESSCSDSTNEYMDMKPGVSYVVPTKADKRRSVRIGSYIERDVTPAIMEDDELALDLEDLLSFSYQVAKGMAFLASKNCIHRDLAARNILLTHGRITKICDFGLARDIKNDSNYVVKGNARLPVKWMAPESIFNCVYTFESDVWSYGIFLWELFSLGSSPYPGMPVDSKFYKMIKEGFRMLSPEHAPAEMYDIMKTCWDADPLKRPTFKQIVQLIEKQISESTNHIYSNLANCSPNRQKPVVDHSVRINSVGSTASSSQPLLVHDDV
# [25] = molecular target: PIK3CA E542K/PIK3R1 (p110 alpha E542K/p85 alpha) (Homo sapiens, UniProt P42336, E542K); test: SelectScreen kinase profiling, Adapta; assay type: biochemical; details: PIK3CA E542K/PIK3R1, 10 µM
# [26] = molecular target: MAP2K1 (MEK1) S218D S222D (Homo sapiens, UniProt Q02750, S218D/S222D); test: SelectScreen kinase profiling, LanthaScreen binding
# [27] = molecular target: P450 2C9 (Homo sapiens, UniProt P11712); test: SelectScreen P450 Vivid biochemical assay; details: 10000nM; substrate BOMF
# [28] = molecular target: MAPK1 (ERK2) (Homo sapiens, UniProt P28482); test: SelectScreen kinase profiling, ZLYTE; assay type: biochemical
# [29] = molecular target: AXL (Homo sapiens, UniProt P30530); test: SelectScreen kinase profiling, ZLYTE; assay type: biochemical
# AXL, sequence (P30530 26-894): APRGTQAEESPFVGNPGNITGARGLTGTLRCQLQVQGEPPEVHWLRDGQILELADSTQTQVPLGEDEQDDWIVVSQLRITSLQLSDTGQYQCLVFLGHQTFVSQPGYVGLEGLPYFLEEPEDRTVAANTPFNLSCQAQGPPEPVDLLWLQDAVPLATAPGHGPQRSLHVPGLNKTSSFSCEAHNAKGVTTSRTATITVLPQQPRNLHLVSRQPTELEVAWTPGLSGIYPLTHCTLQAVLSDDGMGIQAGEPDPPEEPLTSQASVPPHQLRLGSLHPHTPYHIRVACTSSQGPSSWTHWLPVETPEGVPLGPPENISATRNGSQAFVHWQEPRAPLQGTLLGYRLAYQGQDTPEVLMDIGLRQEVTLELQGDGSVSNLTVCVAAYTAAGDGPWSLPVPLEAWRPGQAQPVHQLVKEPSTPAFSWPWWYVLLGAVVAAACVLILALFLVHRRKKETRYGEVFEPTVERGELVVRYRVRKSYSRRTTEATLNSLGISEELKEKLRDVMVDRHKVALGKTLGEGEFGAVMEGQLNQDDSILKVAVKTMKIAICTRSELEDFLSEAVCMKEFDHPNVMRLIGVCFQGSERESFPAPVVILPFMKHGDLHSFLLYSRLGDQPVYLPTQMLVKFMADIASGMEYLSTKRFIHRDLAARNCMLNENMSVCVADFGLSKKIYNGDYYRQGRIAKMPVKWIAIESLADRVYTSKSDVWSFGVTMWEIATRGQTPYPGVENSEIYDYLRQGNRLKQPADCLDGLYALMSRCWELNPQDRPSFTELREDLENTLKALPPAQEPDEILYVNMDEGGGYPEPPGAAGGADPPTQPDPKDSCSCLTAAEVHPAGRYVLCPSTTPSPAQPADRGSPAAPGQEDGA
# [30] = molecular target: ERBB4 (HER4) (Homo sapiens, UniProt Q15303); test: SelectScreen kinase profiling, ZLYTE; assay type: biochemical
# ERBB4 (HER4), sequence (Q15303 26-1308): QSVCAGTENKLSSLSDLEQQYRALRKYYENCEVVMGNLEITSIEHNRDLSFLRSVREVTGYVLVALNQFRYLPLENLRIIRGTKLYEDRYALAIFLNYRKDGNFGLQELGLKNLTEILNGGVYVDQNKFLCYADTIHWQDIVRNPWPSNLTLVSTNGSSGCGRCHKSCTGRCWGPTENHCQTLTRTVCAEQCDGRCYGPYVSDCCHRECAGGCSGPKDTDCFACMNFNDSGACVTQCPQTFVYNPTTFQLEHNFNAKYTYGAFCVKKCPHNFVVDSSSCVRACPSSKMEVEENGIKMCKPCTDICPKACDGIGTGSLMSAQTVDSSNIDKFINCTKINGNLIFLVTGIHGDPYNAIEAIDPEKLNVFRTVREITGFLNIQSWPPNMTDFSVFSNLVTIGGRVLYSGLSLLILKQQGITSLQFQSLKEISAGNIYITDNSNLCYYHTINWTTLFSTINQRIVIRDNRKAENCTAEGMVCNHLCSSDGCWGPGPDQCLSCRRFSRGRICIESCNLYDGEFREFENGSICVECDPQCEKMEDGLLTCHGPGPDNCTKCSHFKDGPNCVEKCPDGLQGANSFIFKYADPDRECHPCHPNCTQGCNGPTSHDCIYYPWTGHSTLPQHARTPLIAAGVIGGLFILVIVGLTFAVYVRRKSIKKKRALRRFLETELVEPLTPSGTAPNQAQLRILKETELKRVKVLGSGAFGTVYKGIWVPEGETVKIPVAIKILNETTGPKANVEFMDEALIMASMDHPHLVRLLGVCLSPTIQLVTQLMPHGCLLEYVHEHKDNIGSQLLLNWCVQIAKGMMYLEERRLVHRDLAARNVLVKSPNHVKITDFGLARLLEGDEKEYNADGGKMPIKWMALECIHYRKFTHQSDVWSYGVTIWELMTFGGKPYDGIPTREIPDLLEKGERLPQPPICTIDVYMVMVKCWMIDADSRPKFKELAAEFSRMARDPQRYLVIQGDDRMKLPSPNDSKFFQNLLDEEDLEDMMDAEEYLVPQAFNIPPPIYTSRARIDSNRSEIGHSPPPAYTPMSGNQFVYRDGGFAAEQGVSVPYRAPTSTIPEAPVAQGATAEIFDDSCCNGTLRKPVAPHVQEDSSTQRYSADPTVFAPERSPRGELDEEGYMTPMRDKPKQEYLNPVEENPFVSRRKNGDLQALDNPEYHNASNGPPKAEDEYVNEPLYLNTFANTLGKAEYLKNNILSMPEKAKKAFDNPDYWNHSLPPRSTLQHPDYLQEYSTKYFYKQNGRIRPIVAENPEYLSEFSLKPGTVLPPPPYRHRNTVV
# [31] = molecular target: CYP2D6 (Homo sapiens, UniProt P10635)
# [32] = molecular target: PIM1 (Homo sapiens, UniProt P11309); test: SelectScreen kinase profiling, ZLYTE; assay type: biochemical; details: PIM1, 10 µM
# [33] = molecular target: PIK3C2B (PI3K-C2 beta) (Homo sapiens, UniProt O00750); test: SelectScreen kinase profiling, Adapta; assay type: biochemical
# PIK3C2B (PI3K-C2 beta), sequence (O00750 whole entry): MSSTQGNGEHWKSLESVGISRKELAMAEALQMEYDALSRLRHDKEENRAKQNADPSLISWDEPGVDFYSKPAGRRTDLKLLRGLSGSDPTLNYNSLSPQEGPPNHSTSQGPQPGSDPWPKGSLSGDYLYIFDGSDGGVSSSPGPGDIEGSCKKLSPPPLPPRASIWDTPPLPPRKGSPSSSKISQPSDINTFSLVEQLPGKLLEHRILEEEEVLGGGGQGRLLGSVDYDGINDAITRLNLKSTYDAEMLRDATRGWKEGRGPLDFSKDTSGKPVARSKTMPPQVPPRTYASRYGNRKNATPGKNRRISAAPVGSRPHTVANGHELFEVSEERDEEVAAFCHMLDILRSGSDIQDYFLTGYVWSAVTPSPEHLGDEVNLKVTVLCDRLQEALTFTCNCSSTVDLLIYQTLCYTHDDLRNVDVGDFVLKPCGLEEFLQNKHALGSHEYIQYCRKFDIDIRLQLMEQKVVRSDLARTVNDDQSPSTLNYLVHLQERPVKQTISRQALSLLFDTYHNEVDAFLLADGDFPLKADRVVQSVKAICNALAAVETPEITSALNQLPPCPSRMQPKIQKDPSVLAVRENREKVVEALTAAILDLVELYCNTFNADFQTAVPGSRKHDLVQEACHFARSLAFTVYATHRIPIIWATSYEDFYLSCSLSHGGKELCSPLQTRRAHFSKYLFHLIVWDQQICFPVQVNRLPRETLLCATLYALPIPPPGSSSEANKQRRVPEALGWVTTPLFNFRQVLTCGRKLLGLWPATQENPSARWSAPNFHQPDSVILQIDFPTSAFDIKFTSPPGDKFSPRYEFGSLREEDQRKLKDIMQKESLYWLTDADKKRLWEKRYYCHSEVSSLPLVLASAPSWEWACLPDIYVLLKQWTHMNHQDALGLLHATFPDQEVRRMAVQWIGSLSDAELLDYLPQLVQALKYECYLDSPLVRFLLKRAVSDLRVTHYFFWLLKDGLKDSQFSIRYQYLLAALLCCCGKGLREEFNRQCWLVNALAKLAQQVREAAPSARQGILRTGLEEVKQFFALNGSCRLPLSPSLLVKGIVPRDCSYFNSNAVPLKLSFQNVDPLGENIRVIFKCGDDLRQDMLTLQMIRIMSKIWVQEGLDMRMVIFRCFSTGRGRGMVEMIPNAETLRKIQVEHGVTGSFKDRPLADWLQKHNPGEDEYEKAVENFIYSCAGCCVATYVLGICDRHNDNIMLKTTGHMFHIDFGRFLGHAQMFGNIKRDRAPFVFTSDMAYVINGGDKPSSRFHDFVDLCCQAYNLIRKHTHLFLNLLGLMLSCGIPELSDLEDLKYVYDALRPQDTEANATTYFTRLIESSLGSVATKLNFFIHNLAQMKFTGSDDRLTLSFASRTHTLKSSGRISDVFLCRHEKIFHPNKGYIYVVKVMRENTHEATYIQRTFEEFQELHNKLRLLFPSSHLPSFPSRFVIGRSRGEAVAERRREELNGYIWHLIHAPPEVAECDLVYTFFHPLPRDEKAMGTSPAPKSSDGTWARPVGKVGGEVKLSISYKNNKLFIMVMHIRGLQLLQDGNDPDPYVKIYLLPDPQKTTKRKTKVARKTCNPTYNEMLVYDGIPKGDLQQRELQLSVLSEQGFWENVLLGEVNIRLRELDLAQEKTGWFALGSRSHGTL
# [34] = molecular target: RET Y791F (Homo sapiens, UniProt P07949, Y791F); test: SelectScreen kinase profiling, ZLYTE; assay type: biochemical
# [35] = molecular target: CLK3 (Homo sapiens, UniProt P49761); test: SelectScreen kinase profiling, ZLYTE; assay type: biochemical; details: CLK3, 10 µM
# [36] = molecular target: EPHA5 (Homo sapiens, UniProt P54756); test: SelectScreen kinase profiling, ZLYTE; assay type: biochemical; details: EPHA5, 10 µM
# [37] = molecular target: FLT3 (Homo sapiens, UniProt P36888); test: SelectScreen kinase profiling, ZLYTE; assay type: biochemical; details: FLT3, 10 µM
# [38] = molecular target: FGFR1 V561M (Homo sapiens, UniProt P11362, V561M); test: SelectScreen kinase profiling, LanthaScreen binding
structure (smiles),measurement,setting,value
O=C(c1ccc(/C=C/c2n[nH]c3ccccc23)cc1)N1CCNCC1 [KW-2449],inhibition at 10 µM,[1],77%
same,inhibition at 10 µM,[2],97%
same,pIC50,[3],5.03
same,inhibition at 10 µM,[4],99%
same,inhibition at 10 µM,[5],96%
same,inhibition at 10 µM,[6],85%
same,inhibition at 10 µM,[7],101%
same,inhibition at 10 µM,[8],18%
same,inhibition at 10 µM,[9],32%
same,inhibition at 10 µM,[10],7%
same,inhibition at 10 µM,[11],10%
same,inhibition at 10 µM,[12],97%
same,inhibition at 10 µM,[13],80%
same,inhibition at 10 µM,[14],38%
same,inhibition at 10 µM,[15],101%
same,inhibition at 10 µM,[16],-3%
same,inhibition at 10 µM,[17],32%
same,inhibition at 10 µM,[18],2%
same,inhibition at 10 µM,[19],102%
same,inhibition at 10 µM,[20],7%
same,inhibition at 10 µM,[21],91%
same,inhibition at 10 µM,[22],-5%
same,inhibition at 10 µM,[23],28%
same,inhibition at 10 µM,[24],84%
same,inhibition at 10 µM,[25],13%
same,inhibition at 10 µM,[26],66%
same,% Inhibition 2C9 BOMF,[27],-2%
same,inhibition at 10 µM,[28],45%
same,inhibition at 10 µM,[29],95%
same,inhibition at 10 µM,[30],55%
same,pIC50,[31],< 5.00
same,inhibition at 10 µM,[32],42%
same,inhibition at 10 µM,[33],9%
same,inhibition at 10 µM,[34],100%
same,inhibition at 10 µM,[35],66%
same,inhibition at 10 µM,[36],84%
same,inhibition at 10 µM,[37],100%
same,inhibition at 10 µM,[38],30%
